Experimental data reported in patent US12447160B2, “Topical treatment of wounds with statins and cholesterol for scar reduction” (Northwestern University, priority 2017, dated 2025).

Experiments:
CTGF mRNA = test: Quantification of CTGF mRNA expression in dermal scar tissue (qPCR); type: in vivo, New Zealand White rabbits; conditions: high-dose (10%) simvastatin topical, mean±SEM, p<0.01
Procedure: (§1) Total RNA was extracted from dermal scar tissue of high-dose simvastatin topical treatment and control scars using TRI reagent (Sigma-Aldrich, St. Louis, MO), and contaminated DNA was removed with Turbo DNA-free kit (Ambion, Austin, TX). The cDNA was synthesized from one μg of total RNA by superscript II reverse transcriptase (Invitrogen, Grand Island, NY) with 100 ng of random primers in 20 μl of volume. Synthesized cDNA was quantified in a sequence detection system (ABI StepOnePlus; Applied Biosystems, Foster City, CA) using SYBR green and specific primers of CTGF and collagen 1A1, and 18 S rRNA was set as endogenous control. The sequence of primers is as followed: CTGF (5′-CTTCTGTCGGCTGGAGAAAC-3′ (SEQ ID NO:1) & 5′-TTAGCCCGGTACGTCTTCAC-3′ (SEQ ID NO:2)); Collagen 1A1: (5′-TAAGAGCTCCAAGGCCAAGA-3′(SEQ ID NO:3) & 5′-TGTTCTGAGAGGCGTGATTG-3′ (SEQ ID NO:4)); Glyceraldehyde 3-phosphate dehydrogenase (5′-AGGTCATCCACGACCACTTC-3′ (SEQ ID NO:5) & 5′-GTGAGTTTCCCGTTCAGCTC-3′ (SEQ ID NO:6)).
(§2) For statistical analysis of histological and molecular analysis results, Student's paired t test was applied to see if there is a difference between treatment and control group, p<0.05 was used as significant. All values were represented as mean±standard error.

Collagen 1A1 mRNA = test: Quantification of Collagen 1A1 mRNA expression in dermal scar tissue (qPCR); type: in vivo, New Zealand White rabbits; conditions: high-dose (10%) simvastatin topical, mean±SEM, p<0.01
Procedure: as §1, §2

[1] = Solubility of statins in the topical vehicle / microemulsion system; type: physicochemical
From the text: Transdermal penetration is the critical limitation in topical application. […] The stratum corneum is hydrophobic and a barrier for any topically applied reagent, and so hydrophobic statins should have increased penetration^18. […] Dosing schedules were chosen based upon in vitro dosing necessary to interfere with CTGF expression^11-13,22,23, and extrapolated to animal models based upon our experience with dose response curves for growth factors in our rabbit ear model^24.

hypertrophic scar = test: Rabbit ear hypertrophic scar model, scar elevation index (SEI) by histomorphometry; type: in vivo, New Zealand White rabbits

CCC(C)(C)C(=O)O[C@H]1C[C@@H](C)C=C2C=C[C@H](C)[C@H](CC[C@@H]3C[C@@H](O)CC(=O)O3)[C@H]21 [simvastatin]
mRNA expression of CTGF compared to vehicle control (CTGF mRNA): 53.8±8.0%
mRNA expression of Collagen 1A1 compared to vehicle control (Collagen 1A1 mRNA): 48.5±14%

CC[C@H](C)C(=O)O[C@H]1C[C@@H](C)C=C2C=C[C@H](C)[C@H](CC[C@@H]3C[C@@H](O)CC(=O)O3)[C@H]21 [lovastatin]
Solubility in the vehicle tested [1]: limited solubility

CC(C)CCC[C@@H](C)[C@H]1CC[C@H]2[C@@H]3CC=C4C[C@@H](O)CC[C@]4(C)[C@H]3CC[C@]12C [cholesterol]
Effect of cholesterol on reducing scarring (hypertrophic scar; topical cholesterol in vehicle): mild, not statistically effect

CC[C@H](C)C(=O)O[C@H]1C[C@H](O)C=C2C=C[C@H](C)[C@H](CC[C@@H](O)C[C@@H](O)CC(=O)O)[C@H]21 [pravastatin]
Scar elevation index (SEI) (hypertrophic scar; intradermal 100 μl 10 μM pravastatin in PBS per wound at POD 15, 18, 21, harvest POD 28, mean±standard error, saline control 1.71±0.08, p=0.0009): 1.55±0.07
